Data as given in ChEMBL document CHEMBL1641470, “New azoles with antifungal activity: Design, synthesis, and molecular docking” (2011).
In brackets after ≈: the same amount, converted by molar mass.

How the values were obtained:
Format in all cases: functional
Trichophyton rubrum = test: Antifungal activity against Trichophyton rubrum by broth microdilution method
Fusarium = test: Antifungal activity against Fusarium by broth microdilution method
Candida tropicalis = test: Antifungal activity against Candida tropicalis by broth microdilution method
Aspergillus fumigatus = test: Antifungal activity against Aspergillus fumigatus by broth microdilution method
Candida albicans = test: Antifungal activity against Candida albicans ATCC Y0109 after 24 hrs by broth microdilution method
Cryptococcus neoformans = test: Antifungal activity against Cryptococcus neoformans ATCC BLS108 after 72 hrs by broth microdilution method
Candida parapsilosis = test: Antifungal activity against Candida parapsilosis by broth microdilution method; conditions: Lodderomyces parapsilosis
Nannizzia gypsea = test: Antifungal activity against Microsporum gypseum by broth microdilution method

Row | Structure (SMILES) | MIC80 (Trichophyton rubrum) [mg/L] | MIC80 (Fusarium) [mg/L] | MIC80 (Candida tropicalis) [mg/L] | MIC80 (Aspergillus fumigatus) [mg/L] | MIC80 (Candida albicans) [mg/L] | MIC80 (Cryptococcus neoformans) [mg/L] | MIC80 (Candida parapsilosis) [mg/L] | MIC80 (Nannizzia gypsea) [mg/L]
1 | O=C(/C=C/c1ccc([N+](=O)[O-])cc1)Nc1ccc(N2CCN(CC(O)(Cn3cncn3)c3ccc(F)cc3F)CC2)c(F)c1 (stereo not given) | 0.0625 (≈ 0.103 µM) | 1 (≈ 1.65 µM) | 0.25 (≈ 0.411 µM) | > 64 | 0.0156 (≈ 0.0257 µM) | 1 (≈ 1.65 µM) | 0.25 (≈ 0.411 µM) | 0.25 (≈ 0.411 µM)
2 | N#Cc1ccc(/C=C/C(=O)Nc2ccc(N3CCN(CC(O)(Cn4cncn4)c4ccc(F)cc4F)CC3)c(F)c2)cc1 (stereo not given) | 4 (≈ 6.81 µM) | 64 (≈ 109 µM) | 1 (≈ 1.7 µM) | > 64 | 0.25 (≈ 0.425 µM) | 1 (≈ 1.7 µM) | 1 (≈ 1.7 µM) | 4 (≈ 6.81 µM)
3 | OC(Cn1cncn1)(Cn1cncn1)c1ccc(F)cc1F [FLUCONAZOLE] | 0.25 (≈ 0.816 µM) | 16 (≈ 52.2 µM) | 1 (≈ 3.27 µM) | 64 (≈ 209 µM) | 4 (≈ 13.1 µM) | 1 (≈ 3.27 µM) | 1 (≈ 3.27 µM) | 0.25 (≈ 0.816 µM)
4 | CCC(C)n1ncn(-c2ccc(N3CCN(c4ccc(OCC5COC(Cn6cncn6)(c6ccc(Cl)cc6Cl)O5)cc4)CC3)cc2)c1=O (stereo not given) [ITRACONAZOLE] | 0.0152 (≈ 0.0215 µM) | 0.25 (≈ 0.354 µM) | 0.25 (≈ 0.354 µM) | 1 (≈ 1.42 µM) | 1 (≈ 1.42 µM) | 1 (≈ 1.42 µM) | 0.25 (≈ 0.354 µM) | 0.0152 (≈ 0.0215 µM)
5 | C[C@@H](c1ncncc1F)[C@](O)(Cn1cncn1)c1ccc(F)cc1F [VORICONAZOLE] | 0.0039 (≈ 0.0112 µM) | 0.0152 (≈ 0.0435 µM) | 0.25 (≈ 0.716 µM) | > 64 | 0.0152 (≈ 0.0435 µM) | 0.0152 (≈ 0.0435 µM) | 1 (≈ 2.86 µM) | 0.0039 (≈ 0.0112 µM)
